Results on 8 compounds are retold here after US20120157451A1, “RAF INHIBITOR COMPOUNDS AND METHODS OF USE THEREOF” (GENENTECH, INC, priority 2009, published 2012).

The test system of assay [1] is basal ERK1/2 phosphorylation in Malme-3M cells. The assay can be described thus: Cellular ERK 1/2 phosphorylation assay. The settings on record: Homo sapiens, 1 hour incubation, pERK normalized to total ERK, representative data of multiple tests. The format is cell-based. The protocol: Inhibition of basal ERK1/2 phosphorylation was determined by the following in vitro […], which comprises incubating cells with a compound of Formula I for 1 hour and quantifying the fluorescent pERK signal on fixed cells and normalizing to total ERK signal.
Materials and Methods: Malme-3M cells were obtained from ATCC and grown in RPMI-1640 supplemented with 10% fetal bovine serum. Cells were plated in 96-well plates at 24,000 cells/well and allowed to attach for 16-20 hours at 37° C., 5% CO2. The media was removed, and DMSO-diluted compounds were added in RPMI-1640 at a final concentration of 1% DMSO. The cells were incubated with the compounds for 1 hour at 37° C., 5% CO2. The cells were washed with PBS and fixed in 3.7% formaldehyde in PBS for 15 minutes. This was followed by washing in PBS/0.05% Tween20 and permeabilizing in −20° C. 100% MeOH for 15 minutes. Cells were washed in PBS/0.05% Tween20 then blocked in Odyssey blocking buffer (LI-COR Biosciences) for 1 hour. Antibodies to phosphorylated ERK (1:400, Cell Signaling #9106, monoclonal) and total ERK (1:400, Santa Cruz Biotechnology #sc-94, polyclonal) were added to the cells and incubated 16-20 hours at 4° C. After washing with PBS/0.05% Tween20, the cells were incubated with fluorescently-labeled secondary antibodies (1:1000 goat anti-rabbit IgG-IRDye800, Rockland and 1:500 goat anti-mouse IgG-Alexa Fluor 680, Molecular Probes) for an additional hour. Cells were then washed and analyzed for fluorescence at both wavelengths using the Odyssey Infrared Imaging System (LI-COR Biosciences). Phosphorylated ERK signal was normalized to total ERK signal.

Assay [2] deals with T1, V600E full-length B-Raf (Homo sapiens, UniProt P15056, V600E).
T1 construct: made in house; host or cells: Sf9 insect cells (baculovirus)
The assay can be described thus: B-Raf IC50 assay (incorporation of radiolabeled phosphate from [γ-33P]ATP into FSBA-modified wild-type MEK). The format is biochemical. From the text:
Determining the activity of Raf in the sample is possible by a number of direct and indirect detection methods (US 2004/0082014). Activity of human recombinant B-Raf protein may be assessed in vitro by assay of the incorporation of radio labeled phosphate to recombinant MAP kinase (MEK), a known physiologic substrate of B-Raf, according to US 2004/0127496 and WO 03/022840.
Activity of human recombinant B-Raf protein may be assessed in vitro by assay of the incorporation of radio labeled phosphate to recombinant MAP kinase (MEK), a known physiologic substrate of B-Raf, according to US 2004/0127496 and WO 03/022840. Catalytically active human recombinant B-Raf protein is obtained by purification from sf9 insect cells infected with a human B-Raf recombinant baculovirus expression vector.
Incubations were carried out at 22° C. in a Costar 3365 plate (Corning). Prior to the assay, the B-Raf and FSBA-MEK were preincubated together in assay buffer at 1.5× (20 μL of 30 nM and 1.5 μM, respectively) for 15 minutes, and the assay was initiated by the addition of 10 μL of 10 μM ATP. Following the 60-minute incubation, the assay mixtures were quenched by the addition of 100 μL of 25% TCA, the plate was mixed on a rotary shaker for 1 minute, and the product was captured on a Perkin-Elmer GF/B filter plate using a Tomtec Mach III Harvester. After sealing the bottom of the plate, […] of Bio-Safe II (Research Products International) scintillation cocktail were added to each well and the plate was top-sealed and counted in a Topcount NXT (Packard).

The mark [3] stands for this setting: 4 μM ATP, 60-minute incubation, representative data of multiple tests.

T1 sequence (P15056 whole entry V600E): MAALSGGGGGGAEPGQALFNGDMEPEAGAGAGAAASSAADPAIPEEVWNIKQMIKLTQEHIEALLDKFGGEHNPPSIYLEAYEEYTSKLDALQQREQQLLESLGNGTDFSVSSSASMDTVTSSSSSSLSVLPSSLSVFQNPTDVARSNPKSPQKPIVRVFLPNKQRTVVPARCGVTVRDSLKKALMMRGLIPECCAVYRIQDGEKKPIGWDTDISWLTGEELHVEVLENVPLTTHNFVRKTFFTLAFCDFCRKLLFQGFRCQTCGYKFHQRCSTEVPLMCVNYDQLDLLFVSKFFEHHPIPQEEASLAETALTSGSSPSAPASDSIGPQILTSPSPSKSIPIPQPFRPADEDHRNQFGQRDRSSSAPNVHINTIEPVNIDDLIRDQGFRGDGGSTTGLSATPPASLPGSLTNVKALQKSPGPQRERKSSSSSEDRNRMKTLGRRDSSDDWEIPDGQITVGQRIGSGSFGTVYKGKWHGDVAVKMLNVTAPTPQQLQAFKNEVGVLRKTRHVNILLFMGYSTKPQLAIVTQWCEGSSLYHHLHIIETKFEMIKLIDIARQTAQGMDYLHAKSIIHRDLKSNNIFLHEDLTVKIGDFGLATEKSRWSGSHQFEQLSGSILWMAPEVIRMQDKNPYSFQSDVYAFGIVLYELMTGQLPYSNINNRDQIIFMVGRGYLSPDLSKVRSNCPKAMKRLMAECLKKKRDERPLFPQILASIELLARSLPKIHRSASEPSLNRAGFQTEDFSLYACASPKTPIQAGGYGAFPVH

As usually defined, the IC50 is the midpoint of a concentration-inhibition curve. Take `CCCS(=O)(=O)Nc1ccc(F)c(C(=O)Nc2cnc3cc(OC)nn3c2)c1F` [Example 1, 2,6-difluoro-N-(2-methoxypyrazolo[1,5-a]pyrimidin-6-yl)-3-(propylsulfonamido)benzamide]: the 50% inhibitory concentration (IC50) is 68.8 nM in assay [1], 53.2 nM in assay [2] (setting [3]) and less than 150 nM in assay [2] (bound stated).
In the same order, the values of `CCCS(=O)(=O)Nc1ccc(F)c(C(=O)Nc2cnc3cc(-c4cccnc4)nn3c2)c1F` [Example 10, 2,6-difluoro-3-(propylsulfonamido)-N-(2-(pyridin-3-yl)pyrazolo[1,5-a]pyrimidin-6-yl)benzamide] are 26.7 nM, 14.7 nM and less than 150 nM.
For the compound `CCCS(=O)(=O)Nc1ccc(F)c(C(=O)Nc2cnc3cc(-c4ccccc4)nn3c2)c1F` [Example 5, 2,6-difluoro-N-(2-phenylpyrazolo[1,5-a]pyrimidin-6-yl)-3-(propylsulfonamido)benzamide], the half-inhibitory concentration (IC50) in assay [1] was determined as 13.9 nM. In other words, the double-digit nanomolar range.
Turning to `CCCS(=O)(=O)Nc1ccc(F)c(C(=O)Nc2cnc3cc(-c4cccc(N5CCN(C)CC5)c4)nn3c2)c1F` [Example 11, 2,6-difluoro-N-(2-(3-(4-methylpiperazin-1-yl)phenyl)pyrazolo[1,5-a]pyrimidin-6-yl)-3-(propylsulfonamido)benzamide], the half-inhibitory concentration (IC50) in assay [1] was 9.55 nM; in assay [2] (setting [3]) it was 4.09 nM; in assay [2] (bound stated), less than 150 nM.
On to `CCCS(=O)(=O)Nc1ccc(F)c(C(=O)Nc2cnc3cc(N4CCCC4)nn3c2)c1F` [Example 17, 2,6-difluoro-3-(propylsulfonamido)-N-(2-(pyrrolidin-1-yl)pyrazolo[1,5-a]pyrimidin-6-yl)benzamide], for which the figures for the IC50 in assay [1] and in assay [2] (setting [3]) were 664 nM and 367 nM, respectively.
With `CCCS(=O)(=O)Nc1ccc(F)c(C(=O)Nc2cnc3cc(OCCOC)nn3c2)c1Cl` [Example 34, 2-chloro-6-fluoro-N-(2-(2-methoxyethoxy)pyrazolo[1,5-a]pyrimidin-6-yl)-3-(propylsulfonamido) benzamide], the 50% inhibitory concentration (IC50) in assay [1] is 126 nM; in assay [2] (setting [3]), 46.1 nM; in assay [2] (bound stated), less than 150 nM.
In the same order, the values of `COc1cc2ncc(NC(=O)c3c(Cl)ccc(NS(=O)(=O)CCCF)c3F)cn2n1` [Example 22, 6-chloro-2-fluoro-3-(3-fluoropropyl-sulfonamido)-N-(2-methoxypyrazolo [1,5-a]pyrimidin-6-yl)benzamide] are 42.8 nM, 7.78 nM and less than 150 nM.
In the same order, the values of `COc1cc2ncc(NC(=O)c3c(F)ccc(NS(=O)(=O)N4CCCC4)c3F)cn2n1` [Example 24, 2,6-difluoro-N-(2-methoxypyrazolo [1,5-a]pyrimidin-6-yl)-3-(pyrrolidine-1-sulfonamido) benzamide] are 382 nM, 260 nM and less than 300 nM.
